From PMC10706821, “Folate-Appended Hydroxypropyl-β-Cyclodextrin Induces Autophagic Cell Death in Acute Myeloid Leukemia Cells” (International Journal of Molecular Sciences, 2023) come the findings set out here.

The subject of data set [1] is AML cell lines. As to the kind of experiment: trypan blue dye exclusion, cell viability. Format: cell-based, human. To be noted: 72 h; FA-HP-β-CyD up to 1 mM, HP-β-CyD up to 10 mM. As to the method: The trypan blue dye exclusion method was used to evaluate cell viability. Cells (HL-60, THP1, SKM1 and Kasumi1 cells) were seeded in flat-bottomed 96-well plates at a density of 1 × 10^4 cells in 100 µL medium per well and incubated with FA-HP-β-CyD (0, 0,1, 0.25, 0.5, 0.75, 1 mM) or HP-β-CyD (0, 1, 2.5, 5, 10 mM) for 72 h. Then, viable cells were counted. Cell proliferation was evaluated by a modified MTT assay using Cell Counting Kit-8 (Dojindo Molecular Technologies, Kumamoto, Japan), as previously described. AML cells were cultured in 96-well plates at a density of 1 × 10^4 cells in 100 µL medium per well and incubated with FA-HP-β-CyD or HP-β-CyD for 72 h. […] This method is capable of quantifying synergistic (CI < 1) and antagonistic (CI > 1) effects at different dose and effect levels.

Data set [2] is described as follows: peripheral blood cell count after intraperitoneal administration. The following applies: for Hb / Plt / WBC: seven repeat injections, Day 8.
Protocol: At 24 h after the first injection, and at 8 days after the last of seven repeat injections, peripheral blood was collected from the tail vein and analyzed by an automated blood cell counter (Celltacα MEK-6500; NIHON KOHDEN, Tokyo, Japan). Data are presented as the mean ± SEM of three independent experiments.
In data set [3] the test system is AML cell lines. As to the kind of experiment: Annexin V and PI staining, statements over all AML cell lines. Type of data set: cell-based, human.
Protocol: PI and Annexin V (BD Biosciences, San Jose, CA, USA) staining was performed to assess apoptosis, as previously described [53]. Cells were filtered through nylon mesh and assessed using a FACSVerse flow cytometer (BD Biosciences). Data were analyzed using FlowJo software 10.8.2 (Tree Star, Inc., Ashland, OR, USA).
Data set [4] concerns HL-60. Description: modified MTT assay (Cell Counting Kit-8), cell proliferation. Type of data set: cell-based, human. To be noted: Homo sapiens, HL-60, 72 h. How it is done:
(§1) The trypan blue dye exclusion method was used to evaluate cell viability. Cells (HL-60, THP1, SKM1 and Kasumi1 cells) were seeded in flat-bottomed 96-well plates at a density of 1 × 10^4 cells in 100 µL medium per well and incubated with FA-HP-β-CyD (0, 0,1, 0.25, 0.5, 0.75, 1 mM) or HP-β-CyD (0, 1, 2.5, 5, 10 mM) for 72 h. Then, viable cells were counted. Cell proliferation was evaluated by a modified MTT assay using Cell Counting Kit-8 (Dojindo Molecular Technologies, Kumamoto, Japan), as previously described. AML cells were cultured in 96-well plates at a density of 1 × 10^4 cells in 100 µL medium per well and incubated with FA-HP-β-CyD or HP-β-CyD for 72 h. The half-maximal inhibitory concentration values (IC50) were determined by non-linear regression using CalcuSyn software version 1.1.1 (Biosoft, Cambridge, UK), as previously described. After obtaining IC50 values for each agent, the antileukemic activity of FA-HP-β-CyD plus cytosine arabinoside (Ara-C) or Venetoclax was evaluated, as previously described. […] CalcuSyn was used to calculate the fraction affected (Fa, in which a value of 0.25 indicates […]) and the CI. This method is capable of quantifying synergistic (CI < 1) and antagonistic (CI > 1) effects at different dose and effect levels.

The next data set concerns SKM-1. The description is as above. Format: cell-based, human. To be noted: Homo sapiens, SKM-1, 72 h. As to the method:
as §1

The next data set relates to THP-1. Described as above. Format: cell-based, human. The following applies: Homo sapiens, THP-1, 72 h. As to the method: as §1
Data set [5] has as its system HL-60. Description: cell viability with autophagy inhibitors (Cell Counting Kit-8). Format: cell-based, human. To be noted: 1 mM FA-HP-β-CyD or 10 mM HP-β-CyD, chloroquine 20 μM, LY294002 50 μM, bafilomycin A1 1 nM. How it is done: (§2) HL-60 and THP1 cells (2 × 10^5 cells in 100 µL of RPMI-1640 medium per well) were seeded in flat-bottomed 96-well plates (Greiner Labortechnik, Hamburg, Germany) and treated with both 1 mM of FA-HP-β-CyD and 10 mM of HP-β-CyD at 37 °C for 2 h. The cells were then pretreated for 24 h with the autophagy inhibitors chloroquine (20 µM), LY294002 (50 μM; Fujifilm Wako Pure Chemicals Co., Ltd., Osaka, Japan), or bafilomycin A1 (1 nM; Funakoshi, Tokyo, Japan). Cell proliferation was assessed using Cell Counting Kit-8.

Data set [6] relates to THP1. The description is as above. Format: cell-based, human. To be noted: 1 mM FA-HP-β-CyD or 10 mM HP-β-CyD, chloroquine 20 μM, LY294002 50 μM, bafilomycin A1 1 nM. As to the method: as §2
A further data set relates to Kasumi1. As to the kind of experiment: cell cycle analysis (PI, flow cytometry). Type of data set: cell-based, human. To be noted: Kasumi1, 24 h. How it is done: (§3) Cell cycle analyses of AML cell lines (HL-60, THP1, SKM1, and Kasumi1 cells) were performed as described previously. In brief, 1 × 10^6 cells were treated with the indicated concentrations of CyDs. After 24 h of CyD treatment, cells were collected and fixed with 70% ethanol. Cells were then incubated at room temperature for 30 min with 0.1% Triton X-100/0.5% RNase A and stained with 50 μg/mL PI (BD Biosciences, San Jose, CA, USA). Cellular DNA content was analyzed by flow cytometry, and cell cycle profiles were determined in a FACS CantoII flow cytometer with CellQuest software (version 1.0.6, BD Biosciences).

The subject of the next data set is SKM1. Description: cell cycle analysis (PI, flow cytometry). To be noted: SKM1, before and after exposure. Format: cell-based, human. As to the method: as §3
Data set [7] has as its system HL-60. As to the kind of experiment: cell cycle analysis (PI, flow cytometry). Type of data set: cell-based, human. To be noted: HL-60, 24 h. How it is done:
as §3

Data set [8] has as its system THP1. As to the kind of experiment: cell cycle analysis (PI, flow cytometry). Format: cell-based, human. To be noted: THP1, 24 h. How it is done: as §3

As to `CC(O)COC[C@H]1O[C@@H]2O[C@H]3[C@H](O)[C@@H](O)[C@@H](O[C@H]4[C@H](O)[C@@H](O)[C@@H](O[C@H]5[C@H](O)[C@@H](O)[C@@H](O[C@H]6[C@H](O)[C@@H](O)[C@@H](O[C@H]7[C@H](O)[C@@H](O)[C@@H](O[C@H]8[C@H](O)[C@@H](O)[C@@H](O[C@H]1[C@H](O)[C@H]2O)O[C@@H]8COCC(C)O)O[C@@H]7COCC(C)O)O[C@@H]6COCC(C)O)O[C@@H]5COCC(C)O)O[C@@H]4COCC(C)O)O[C@@H]3COCC(C)O` (stereo partly drawn) [HP-β-CyD, 2-Hydroxypropyl-β-cyclodextrin], the “cell viability (trypan blue)” value in the data set with AML cell lines [1] is recorded as “reduced the cell viability of the AML cell lines in a dose-dependent manner”. Further, the “change in blood cell counts compared with vehicle (PBS)” value in data set [2] (8 days after intraperitoneal injection, exception: higher dose of HP-β-CyD (10,000 mg/kg b.i.d.)) is on record as “no significant change”. Moreover, the results for the Hb in data set [2] (HP-β-CyD 2000 mg/kg i.p.) and in [2] (HP-β-CyD 6000 mg/kg i.p.) were 12.4 ± 0.67 g/dL and 14.3 ± 0.25 g/dL, respectively. In addition, the Plt was 64.5 ± 2.29 ×10^4/μL in [2] (HP-β-CyD 2000 mg/kg i.p.), 60.2 ± 10.69 ×10^4/μL in data set [2] (HP-β-CyD 6000 mg/kg i.p.) and 75.5 ± 17.83 ×10^4/μL in data set [2] (HP-β-CyD 10,000 mg/kg i.p.). Further, the WBC in [2] (HP-β-CyD 2000 mg/kg i.p.) is 44.7 ± 12.65 ×10^2/μL; in data set [2] (HP-β-CyD 6000 mg/kg i.p.), 50.0 ± 2.34 ×10^2/μL; in data set [2] (HP-β-CyD 10,000 mg/kg i.p., p < 0.05), 30.5 ± 1.65 ×10^2/μL. The “mode of cell death at high concentration” value with AML cell lines [3] (15 mM HP-β-CyD) was “appeared to undergo necrosis”. In addition, in the data set on AML cell lines [3] (four AML cell lines, 72 h), the apoptosis induction entry was “underwent apoptosis”. Further, the values for the IC50 with HL-60 [4], with SKM-1 and in the data set with THP-1 were 7.66 mM, 9.44 mM and 9.05 mM, respectively. For the same compound, the “viability in the presence of autophagy inhibitors vs CyD alone” value in the data set on HL-60 [5] and in the data set with THP1 [6] was “not affected by the presence or absence of autophagy inhibitors” throughout. For the same compound, the “effect on cell cycle status” value in the data set on Kasumi1 is recorded as “dose-dependent increase in the percentage of cells in G2/M phase”; in the data set with SKM1, “no change in cell cycle”; with HL-60 [7], “dose-dependent increase in the percentage of cells in G2/M phase”; in the data set on THP1 [8] it was “dose-dependent increase in the percentage of cells in G2/M phase”.
